Experimental data from patent US20260365670A1, “EGFR INHIBITORS AND USES THEREOF” (DIZAL (JIANGSU) PHARMACEUTICAL CO., LTD., priority 2022, published 2026).
Like-named read-outs stand apart in the source and are kept apart here.

What was measured:
[1] = target: T1, EGFR wild type (Homo sapiens, UniProt P00533); experiment: Inhibition of EGFR wild type biochemical enzymatic activity (HTRF); settings: EGFR WT, 1 mM ATP, 1 h, room temperature, read-out: IC50 (nM) @WT
T1 construct: purchased Carna Bio
Method in brief: (§1)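 Read-out is the HTRF 665/615 nm ratio (excitation 320 nm), taken as proportional to kinase activity after a 1 h room-temperature reaction with 1 mM ATP and 1 μM biotinylated TK substrate. IC50 values derive from four-parameter logistic fitting.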

[2] = target: T2, EGFR L858R (Homo sapiens, UniProt P00533, L858R); experiment: Inhibition of EGFR L858R biochemical enzymatic activity (HTRF); settings: 1 mM ATP, 1 h, room temperature, read-out: IC50 (nM) @L858R
T2 construct: purchased Carna Bio
T2 sequence (P00533 25-1210 L858R): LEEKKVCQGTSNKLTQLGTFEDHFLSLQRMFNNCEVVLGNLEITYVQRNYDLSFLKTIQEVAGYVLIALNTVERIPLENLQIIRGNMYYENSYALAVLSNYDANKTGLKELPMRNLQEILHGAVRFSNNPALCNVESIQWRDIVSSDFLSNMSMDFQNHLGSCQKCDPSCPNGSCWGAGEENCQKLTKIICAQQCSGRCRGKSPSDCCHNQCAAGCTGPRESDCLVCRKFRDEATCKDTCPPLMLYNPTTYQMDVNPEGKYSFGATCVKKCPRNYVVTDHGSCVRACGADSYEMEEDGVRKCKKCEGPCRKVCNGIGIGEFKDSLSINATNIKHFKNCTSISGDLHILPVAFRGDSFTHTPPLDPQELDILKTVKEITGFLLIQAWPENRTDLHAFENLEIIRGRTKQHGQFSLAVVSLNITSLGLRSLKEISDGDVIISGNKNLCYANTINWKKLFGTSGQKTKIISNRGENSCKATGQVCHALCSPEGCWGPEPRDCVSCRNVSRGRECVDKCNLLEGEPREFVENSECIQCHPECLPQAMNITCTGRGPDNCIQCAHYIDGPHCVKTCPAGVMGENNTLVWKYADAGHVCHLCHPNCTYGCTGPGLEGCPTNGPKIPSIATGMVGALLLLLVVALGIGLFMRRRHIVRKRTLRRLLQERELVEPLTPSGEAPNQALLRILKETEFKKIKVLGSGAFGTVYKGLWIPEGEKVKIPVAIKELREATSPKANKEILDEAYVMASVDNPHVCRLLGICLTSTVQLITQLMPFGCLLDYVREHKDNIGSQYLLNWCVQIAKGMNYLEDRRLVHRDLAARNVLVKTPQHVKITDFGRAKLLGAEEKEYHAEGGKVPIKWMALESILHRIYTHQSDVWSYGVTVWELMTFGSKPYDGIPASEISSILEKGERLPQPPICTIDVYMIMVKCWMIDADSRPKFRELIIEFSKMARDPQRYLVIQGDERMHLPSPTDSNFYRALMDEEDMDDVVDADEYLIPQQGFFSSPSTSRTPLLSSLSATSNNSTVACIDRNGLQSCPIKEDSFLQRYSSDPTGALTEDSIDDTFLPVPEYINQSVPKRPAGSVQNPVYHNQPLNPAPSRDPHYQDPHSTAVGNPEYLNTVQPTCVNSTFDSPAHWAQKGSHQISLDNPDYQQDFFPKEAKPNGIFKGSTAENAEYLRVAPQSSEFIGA
Method in brief: as §1

[3] = target: T3, EGFR L858R/T790M (Homo sapiens, UniProt P00533, L858R/T790M); experiment: Inhibition of EGFR L858R/T790M biochemical enzymatic activity (HTRF); settings: EGFR L858R-T790M, 1 mM ATP, 1 h, room temperature, read-out: IC50 (nM) @L858R-T790M
T3 construct: purchased Carna Bio
Method in brief: as §1

[4] = target: T4, EGFR Exon19Del (Homo sapiens, UniProt P00533, DEL746-750); experiment: Inhibition of EGFR Exon19Del biochemical enzymatic activity (HTRF); settings: EGFR Del19, 1 mM ATP, 1 h, room temperature, read-out: IC50 @Del19
T4 construct: purchased Carna Bio
T4 sequence (P00533 with tags, fused parts or gaps DEL746-750 limits assumed): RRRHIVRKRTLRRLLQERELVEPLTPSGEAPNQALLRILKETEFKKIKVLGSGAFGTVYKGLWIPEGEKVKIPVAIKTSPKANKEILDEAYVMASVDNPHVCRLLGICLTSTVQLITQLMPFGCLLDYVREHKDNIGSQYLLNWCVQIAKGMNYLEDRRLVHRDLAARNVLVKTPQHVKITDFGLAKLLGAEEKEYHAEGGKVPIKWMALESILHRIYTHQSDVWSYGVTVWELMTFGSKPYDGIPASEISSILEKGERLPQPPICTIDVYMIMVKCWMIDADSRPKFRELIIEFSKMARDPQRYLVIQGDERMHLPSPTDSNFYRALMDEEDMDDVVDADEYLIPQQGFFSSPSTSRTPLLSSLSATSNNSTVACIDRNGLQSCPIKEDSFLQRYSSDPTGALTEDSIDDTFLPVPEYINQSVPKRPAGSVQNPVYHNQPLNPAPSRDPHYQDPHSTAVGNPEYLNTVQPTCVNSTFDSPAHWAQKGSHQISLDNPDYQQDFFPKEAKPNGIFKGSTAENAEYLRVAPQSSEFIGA
Method in brief: as §1

[5] = target: T5, EGFR Exon19Del/T790M (Homo sapiens, UniProt P00533, DEL746-750/T790M); experiment: Inhibition of EGFR Exon19Del/T790M biochemical enzymatic activity (HTRF); settings: EGFR Del19-T790M, 1 mM ATP, 1 h, room temperature, read-out: IC50 (nM) @Del19-T790M
T5 construct: purchased Carna Bio
T5 sequence (P00533 with tags, fused parts or gaps DEL746-750/T790M limits assumed): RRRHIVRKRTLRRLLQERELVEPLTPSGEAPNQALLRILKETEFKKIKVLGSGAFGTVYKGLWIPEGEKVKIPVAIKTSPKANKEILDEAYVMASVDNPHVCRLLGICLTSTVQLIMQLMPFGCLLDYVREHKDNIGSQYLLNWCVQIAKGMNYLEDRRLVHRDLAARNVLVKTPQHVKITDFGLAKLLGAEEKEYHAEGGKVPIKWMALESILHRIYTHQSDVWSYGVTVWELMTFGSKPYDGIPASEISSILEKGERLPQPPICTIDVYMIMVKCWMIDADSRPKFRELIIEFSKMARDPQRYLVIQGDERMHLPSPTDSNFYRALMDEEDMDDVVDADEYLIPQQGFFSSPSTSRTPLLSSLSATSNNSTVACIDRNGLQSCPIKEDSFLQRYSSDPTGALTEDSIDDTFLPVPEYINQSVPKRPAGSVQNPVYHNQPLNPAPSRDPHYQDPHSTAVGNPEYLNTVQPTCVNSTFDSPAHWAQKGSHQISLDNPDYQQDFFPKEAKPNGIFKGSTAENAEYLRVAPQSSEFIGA
Method in brief: as §1

[6] = target: T6, EGFR[T790M/C797S/L858R] (Homo sapiens, UniProt P00533, C797S/L858R/T790M); experiment: Inhibition of EGFR[T790M/C797S/L858R] biochemical enzymatic activity (HTRF); settings: EGFR T790M-C797S-L858R, 1 mM ATP, 1 h, room temperature, read-out: IC50 (nM) @T790M- C797S - L858R
T6 construct: purchased Carna Bio
Method in brief: as §1

[7] = target: T7, EGFR[T790M/C797S/d746-750] (Homo sapiens, UniProt P00533, C797S/DEL746-750/T790M); experiment: Inhibition of EGFR[T790M/C797S/d746-750] biochemical enzymatic activity (HTRF); settings: EGFR T790M-C797S-Del19, 1 mM ATP, 1 h, room temperature, read-out: IC50 (nM) @T790M - C797S - Del19
T7 construct: purchased Carna Bio
T7 sequence (P00533 with tags, fused parts or gaps DEL746-750/T790M/C797S limits assumed): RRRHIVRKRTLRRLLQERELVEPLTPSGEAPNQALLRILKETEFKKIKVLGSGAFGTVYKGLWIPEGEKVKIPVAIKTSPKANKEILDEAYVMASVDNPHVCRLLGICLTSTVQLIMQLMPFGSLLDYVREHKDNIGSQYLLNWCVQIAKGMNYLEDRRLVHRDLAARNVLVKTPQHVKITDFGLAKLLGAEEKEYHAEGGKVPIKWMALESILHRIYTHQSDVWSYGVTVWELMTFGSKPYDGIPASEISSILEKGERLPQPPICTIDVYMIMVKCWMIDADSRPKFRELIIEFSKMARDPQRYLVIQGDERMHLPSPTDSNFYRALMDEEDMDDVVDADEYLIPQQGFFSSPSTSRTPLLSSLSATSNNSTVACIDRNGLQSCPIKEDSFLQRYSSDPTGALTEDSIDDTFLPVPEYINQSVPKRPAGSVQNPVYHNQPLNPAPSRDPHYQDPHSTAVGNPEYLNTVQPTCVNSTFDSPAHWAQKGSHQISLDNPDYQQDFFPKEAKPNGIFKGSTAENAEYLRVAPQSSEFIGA
Method in brief: as §1

[8] = target: T8, EGFR (d746-750 C797S) (Homo sapiens, UniProt P00533, C797S/DEL746-750); experiment: Inhibition of EGFR (d746-750 C797S) biochemical enzymatic activity (HTRF); settings: EGFR Del19-C797S, 1 mM ATP, 1 h, room temperature, read-out: IC50 (nM) @Del19-C797S
T8 construct: purchased signalchem
T8 sequence (P00533 with tags, fused parts or gaps DEL746-750/C797S limits assumed): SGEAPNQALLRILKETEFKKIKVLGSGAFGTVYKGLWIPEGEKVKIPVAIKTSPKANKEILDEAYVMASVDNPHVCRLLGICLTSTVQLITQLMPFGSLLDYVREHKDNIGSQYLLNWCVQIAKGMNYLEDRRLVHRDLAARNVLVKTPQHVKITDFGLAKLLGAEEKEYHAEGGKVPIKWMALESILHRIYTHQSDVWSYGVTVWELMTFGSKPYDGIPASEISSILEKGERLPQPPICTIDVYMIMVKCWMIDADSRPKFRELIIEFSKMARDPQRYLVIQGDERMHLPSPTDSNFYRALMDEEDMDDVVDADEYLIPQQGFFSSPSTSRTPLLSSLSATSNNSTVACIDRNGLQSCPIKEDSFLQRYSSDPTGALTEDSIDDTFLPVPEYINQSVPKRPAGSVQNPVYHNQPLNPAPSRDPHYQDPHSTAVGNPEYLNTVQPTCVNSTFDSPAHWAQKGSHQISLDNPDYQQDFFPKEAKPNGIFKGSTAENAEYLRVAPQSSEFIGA
Method in brief: as §1

[9] = target: T9, EGFR (C797S L858R) (Homo sapiens, UniProt P00533, C797S/L858R); experiment: Inhibition of EGFR (C797S L858R) biochemical enzymatic activity (HTRF); settings: EGFR L858-C797S, 1 mM ATP, 1 h, room temperature, read-out: IC50 (nM) @L858-C797S
T9 construct: purchased signalchem
T9 sequence (P00533 25-1210 C797S/L858R): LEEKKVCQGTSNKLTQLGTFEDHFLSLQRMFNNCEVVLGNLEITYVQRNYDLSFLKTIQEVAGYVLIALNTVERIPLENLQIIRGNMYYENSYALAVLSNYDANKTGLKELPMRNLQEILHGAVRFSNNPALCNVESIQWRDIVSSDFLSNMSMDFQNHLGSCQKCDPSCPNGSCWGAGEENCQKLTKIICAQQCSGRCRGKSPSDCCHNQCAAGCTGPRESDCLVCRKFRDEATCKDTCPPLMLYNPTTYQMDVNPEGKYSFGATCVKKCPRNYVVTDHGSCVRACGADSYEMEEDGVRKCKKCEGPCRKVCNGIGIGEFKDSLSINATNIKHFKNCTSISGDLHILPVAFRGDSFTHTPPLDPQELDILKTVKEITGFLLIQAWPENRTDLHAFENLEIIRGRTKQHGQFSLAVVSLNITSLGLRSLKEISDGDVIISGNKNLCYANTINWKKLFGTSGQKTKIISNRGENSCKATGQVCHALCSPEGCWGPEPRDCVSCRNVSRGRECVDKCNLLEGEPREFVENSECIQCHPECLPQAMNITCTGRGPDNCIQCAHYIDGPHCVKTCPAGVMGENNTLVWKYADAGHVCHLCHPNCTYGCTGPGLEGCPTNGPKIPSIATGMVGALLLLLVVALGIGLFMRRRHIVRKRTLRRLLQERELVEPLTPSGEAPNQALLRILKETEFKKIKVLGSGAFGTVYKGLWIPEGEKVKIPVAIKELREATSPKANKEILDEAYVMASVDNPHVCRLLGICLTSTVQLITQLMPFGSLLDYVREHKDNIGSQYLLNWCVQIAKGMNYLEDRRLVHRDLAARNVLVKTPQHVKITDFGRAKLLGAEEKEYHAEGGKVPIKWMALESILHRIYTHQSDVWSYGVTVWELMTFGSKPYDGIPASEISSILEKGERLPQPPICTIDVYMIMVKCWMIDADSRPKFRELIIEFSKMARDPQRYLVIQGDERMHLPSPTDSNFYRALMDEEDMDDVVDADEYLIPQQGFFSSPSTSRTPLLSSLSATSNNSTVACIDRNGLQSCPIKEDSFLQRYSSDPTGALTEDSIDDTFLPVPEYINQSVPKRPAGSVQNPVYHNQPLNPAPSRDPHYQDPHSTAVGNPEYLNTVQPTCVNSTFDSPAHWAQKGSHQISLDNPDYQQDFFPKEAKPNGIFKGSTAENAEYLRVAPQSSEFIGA
Method in brief: as §1

[10] = system: Ba/F3 cells expressing EGFR mutations; experiment: Cell proliferation assay, Ba/F3 cells expressing EGFR mutations (CellTiter-Glo, 72 hours); format: cell-based; settings: CellTiter-Glo
Method in brief: (§2)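 Ba/F3 cells carrying EGFR mutants (5000/well) or PC-9 cells (500/well) in RPMI1640 were dosed with compound series after overnight attachment and grown 72 h. Viability read by CellTiter-Glo, with day-0 counts subtracted; GI50 from curve fits of % proliferation versus DMSO control.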

[11] = system: PC-9; experiment: Cell proliferation assay, PC-9 cells (CellTiter-Glo, 72 hours); format: cell-based; settings: PC9 cells, CellTiter-Glo, read-out: PC9 GI50
Method in brief: as §2

[12] = system: A-431; experiment: Cell proliferation GI50, A-431 cells (Table 6); format: cell-based
[13] = BaF3 cells, EGFR DEL19-C797S, read-out: DEL19-C797S/BaF3 GI50
[14] = BaF3 cells, EGFR DEL19-T790-C797S, read-out: DEL19-T790-C797S/BaF3 GI50
[15] = BaF3 cells, EGFR L858R, read-out: L858R/BaF3 GI50
[16] = BaF3 cells, EGFR L858R-C797S, read-out: L858R-C797S/BaF3 GI50
[17] = BaF3 cells, EGFR L858R-T790-C797S, read-out: L858R-T790-C797S/BaF3 GI50
[18] = BaF3 cells, EGFR L858R-T790M, read-out: L858R-T790M/BaF3 GI50
[19] = EGFR DEL19-T790M, read-out: DEL19-T790M GI50
[20] = Homo sapiens, A-431, A-431 cells
[21] = Mus musculus, BaF3, 72 h, BaF3 cells, EGFR DEL19-C797S, read-out: DEL19-C797S/BaF3 GI50
[22] = Mus musculus, BaF3, 72 h, BaF3 cells, EGFR DEL19-T790-C797S, read-out: DEL19-T790-C797S/BaF3 GI50
[23] = Mus musculus, BaF3, 72 h, BaF3 cells, EGFR L858R, read-out: L858R/BaF3 GI50
[24] = Mus musculus, BaF3, 72 h, BaF3 cells, EGFR L858R-C797S, read-out: L858R-C797S/BaF3 GI50
[25] = Mus musculus, BaF3, 72 h, BaF3 cells, EGFR L858R-T790-C797S, read-out: L858R-T790-C797S/BaF3 GI50
[26] = Mus musculus, BaF3, 72 h, BaF3 cells, EGFR L858R-T790M, read-out: L858R-T790M/BaF3 GI50
[27] = Mus musculus, BaF3, 72 h, EGFR DEL19-T790M, read-out: DEL19-T790M GI50

Q: Which results are given for Cn1ncc2c1OCCN1CC3CCC(C3)(C1)n1c(nc3ccc(N4CCC(N5CCOCC5)C4)cc31)NC(=O)c1cc-2c(=O)n(C)c1 (single isomer, unassigned) [Example A104A]?
A: IC50 [1]: > 5000 nM; IC50 [2]: 4680 nM; IC50 [3]: > 5000 nM; IC50 [4]: 1280 nM; IC50 [5]: > 5000 nM; IC50 [6]: > 5000 nM; IC50 [7]: > 5000 nM; IC50 [8]: 1390 nM; IC50 [9]: > 5000 nM; GI50 [10, 13]: 217 nM; GI50 [10, 14]: 503 nM; GI50 [10, 15]: 795 nM; GI50 [10, 16]: 402 nM; GI50 [10, 17]: 675 nM; GI50 [10, 18]: 1000 nM; GI50 [10, 19]: 473 nM; GI50 [11]: 568 nM; GI50 [12, 20]: 1940 nM

Q: For C[C@@H]1CCCNc2c(cnn2C)-c2cc(cn(C)c2=O)C(=O)Nc2nc3ccc(N4CCN(C)CC4)cc3n2C1 [Example A57], which IC50 [1] is on record?
A: > 5000 nM

Q: What about the IC50 [2] of the same compound?
A: > 5000 nM

Q: And the IC50 [3]?
A: 4530 nM

Q: And the IC50 [4]?
A: 189 nM

Q: And the IC50 [5]?
A: 112 nM

Q: What about the IC50 [6] of the same compound?
A: > 5000 nM

Q: And the IC50 [7]?
A: 65 nM

Q: And the IC50 [8]?
A: 175 nM

Q: And the IC50 [9]?
A: 2650 nM

Q: What about the GI50 [10, 21] of the same compound?
A: 64 nM

Q: And the GI50 [10, 22]?
A: 534 nM

Q: And the GI50 [10, 23]?
A: 790 nM

Q: What about the GI50 [10, 24] of the same compound?
A: 474 nM

Q: And the GI50 [10, 25]?
A: 716 nM

Q: What about the GI50 [10, 26] of the same compound?
A: 356 nM

Q: What about the GI50 [10, 27] of the same compound?
A: 612 nM

Q: And the GI50 ([11]; Homo sapiens, PC-9, 72 h)?
A: 194 nM

Q: And the GI50 [12, 20]?
A: 8300 nM

Q: Cn1ncc2c1OCCN1CC3CCC(C3)(C1)n1c(nc3cc(Br)ccc31)NC(=O)c1cc-2c(=O)n(C)c1 (stereo not drawn) [Example A59, 6-Bromo-15,21-dimethyl-23-oxa-2,9,11,15,20,21,26-heptaazaheptacyclo[24.4.1.1^{1,28}.1^{13,17}.0^{2,10}.0^{3,8}.0^{18,22}]tritriaconta-3,5,7,9,13,17(33),18(22),19-octaene-12,16-dione] was tested. Which IC50 [1] did it give?
A: > 5000 nM

Q: And the IC50 [2]?
A: > 5000 nM

Q: And the IC50 [3]?
A: 2610 nM

Q: And the IC50 [4]?
A: 202 nM

Q: What about the IC50 [5] of the same compound?
A: 11 nM

Q: And the IC50 [6]?
A: 807 nM

Q: What about the IC50 [7] of the same compound?
A: 11 nM

Q: What about the IC50 [8] of the same compound?
A: 140 nM

Q: What about the IC50 [9] of the same compound?
A: 4720 nM

Q: And the GI50 [10, 21]?
A: 32 nM

Q: What about the GI50 [10, 22] of the same compound?
A: 75 nM

Q: And the GI50 [10, 23]?
A: 201 nM

Q: What about the GI50 [10, 24] of the same compound?
A: 222 nM

Q: What about the GI50 [10, 25] of the same compound?
A: 160 nM

Q: What about the GI50 [10, 26] of the same compound?
A: 964 nM

Q: What about the GI50 [10, 27] of the same compound?
A: 140 nM

Q: And the GI50 ([11]; Homo sapiens, PC-9, 72 h)?
A: 295 nM

Q: And the GI50 [12, 20]?
A: 1140 nM

Q: With Cn1ncc2c1OCCN1CC3CCC(C3)(C1)n1c(nc3ccc(N4CCN(C5CC5)CC4)cc31)NC(=O)c1cc-2c(=O)n(C)c1 (single isomer, unassigned) [Example A83A] as the compound, how does the IC50 [1] read?
A: > 5000 nM

Q: And the IC50 [2]?
A: 2020 nM

Q: What about the IC50 [3] of the same compound?
A: > 5000 nM

Q: And the IC50 [4]?
A: 428 nM

Q: And the IC50 [5]?
A: > 5000 nM

Q: What about the IC50 [6] of the same compound?
A: > 5000 nM

Q: And the IC50 [7]?
A: > 5000 nM

Q: And the IC50 [8]?
A: 577 nM

Q: And the IC50 [9]?
A: 2600 nM

Q: What about the GI50 [10, 13] of the same compound?
A: 176 nM

Q: And the GI50 [10, 14]?
A: 789 nM

Q: And the GI50 [10, 15]?
A: 993 nM

Q: And the GI50 [10, 16]?
A: 468 nM

Q: What about the GI50 [10, 17] of the same compound?
A: 1090 nM

Q: And the GI50 [10, 18]?
A: 1130 nM

Q: And the GI50 [10, 19]?
A: 585 nM

Q: What about the GI50 [11] of the same compound?
A: 766 nM

Q: What about the GI50 ([12]; A-431 cells) of the same compound?
A: 7760 nM
